Results on 16 molecules are retold here after paper PMC3103432, “Effect of reverse transcriptase inhibitors on LINE-1 and Ty1 reverse transcriptase activities and on LINE-1 retrotransposition” (BMC Biochemistry, 2011).

Like-named read-outs stand apart in the source and are kept apart here. Marks after values point to notes of the source that are not given here.

Data set [1] concerns ORFeus-Mm (synthetic mouse L1) retrotransposition. Put plainly: Cell-based L1 retrotransposition assay, ORFeus-Mm. The settings on record: control = 1.0, normalized to cell viability. The procedure: (§1) The cell-based retrotransposition assay was conducted as described. HeLa cells (a gift from Dr. John Moran, University of Michigan) were seeded in 6-well dishes in DMEM (2×10^5 cells/well). The next day cells were transfected with Fugene 6 according to the manufacturer's manual. Each transfection consisted of 96 μl Opti-Mem, 1 μg pWA195 DNA and 3 μl Fugene 6. Sixteen hours after transfection, the cells were trypsinized and transferred to a 6 cm plate in DMEM with 2.5 μg/ml puromycin and the RT inhibitors. Three days after puromycin selection, dead cells were removed and puromycin resistant cells were trypsinized and counted with a hemocytometer. The puromycin resistant cells were plated on a 10 cm plate (1×10^4 cells/plate) in 10 ml DMEM with 500 μg/ml G418. The RT inhibitors were added to the same concentration as in the puromycin selection. […] Two weeks later, G418 resistant cells were fixed to the plate and stained with 0.1% crystal violet. The number of G418 resistant colonies was counted to calculate retrotransposition frequency. Six independent assays were done for each RT inhibitor.

Data set [2] relates to ORFeus-Hs (synthetic human L1) retrotransposition in HeLa cells. Briefly: Cell-based L1 retrotransposition assay, ORFeus-Hs. Conditions: for Relative retrotransposition efficiency / activity at 5 µM / activity at 50 µM: control = 1.0, normalized to cell viability; for activity at 5 µM / activity at 50 µM: read-out: Relative retrotransposition efficiency. The procedure:
as §1

The test system of the next data set is HIV-1. Further details: method as in PMID 2413459. Conditions: cited from earlier work.
The target of data set [3] is T1, Ty1 RT (Saccharomyces cerevisiae, UniProt Q99231).
T1 construct: recombinant Ty1 RT, which required C-terminal residues of integrase for its RT activity; made in house; host or cells: E. coli BL21 (co-transformed with chaperone plasmid pG-Tf2)
T1 sequence (Q99231 1103-1755): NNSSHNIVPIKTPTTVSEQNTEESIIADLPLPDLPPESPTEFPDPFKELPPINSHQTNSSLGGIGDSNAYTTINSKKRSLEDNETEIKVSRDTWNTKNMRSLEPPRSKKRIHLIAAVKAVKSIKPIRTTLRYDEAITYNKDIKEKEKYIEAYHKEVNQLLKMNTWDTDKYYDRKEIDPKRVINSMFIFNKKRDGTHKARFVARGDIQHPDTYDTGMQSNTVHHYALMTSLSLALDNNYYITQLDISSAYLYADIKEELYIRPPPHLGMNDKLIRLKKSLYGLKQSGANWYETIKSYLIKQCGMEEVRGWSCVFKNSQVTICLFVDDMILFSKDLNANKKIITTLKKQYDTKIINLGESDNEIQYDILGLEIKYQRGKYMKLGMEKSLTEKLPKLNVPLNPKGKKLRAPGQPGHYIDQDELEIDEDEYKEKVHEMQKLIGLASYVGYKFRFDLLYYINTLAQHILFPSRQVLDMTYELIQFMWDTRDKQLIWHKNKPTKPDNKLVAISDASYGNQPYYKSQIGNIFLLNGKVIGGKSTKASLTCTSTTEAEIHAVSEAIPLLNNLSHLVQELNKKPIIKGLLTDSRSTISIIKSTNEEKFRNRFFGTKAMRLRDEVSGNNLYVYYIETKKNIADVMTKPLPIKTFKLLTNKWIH
Put plainly: In vitro RT assay with recombinant Ty1 RT. Format: biochemical. The settings on record: for high concentration at which Ty1 RT was inhibited: inhibited only at this high concentration; for increase of Ty1 RT activity: at low concentrations. The procedure: (§2) The RT assays for HIV-1 and L1 RT were performed in a 20 μl reaction mixtures containing 50 mM Tris-Cl (pH 8.0), 50 mM KCl, 5 mM MgCl2, 10 mM DDT, 0.01 U template/primer, 1 μl [α-^32P] dTTP or [α-^32P] dCTP (final concentration 0.17 μM, 3000 Ci/mmol, 10 mCi/ml) at 37°C for 30 min. Then the mixture was spotted on DE81 paper and washed three times with 2×SSC buffer for a total time of 30 min. The DE81 paper was dried and counted by scintillation counter Beckman LS6000SC. RT assay for Ty1 RT was done under the same buffer condition except that 20 mM MgCl2 was used and the reaction mixture was incubated at room temperature. In each reaction the amounts of L1, HIV-1 and Ty1 RTs with the same specific activity were added. To test the inhibition of the RT inhibitors, 1 μl inhibitor was included in the mixture to obtain the desired concentration. […] All assays were done at least in triplicate.

Data set [4] has as its target T2, human L1 reverse transcriptase (MBP-RT fusion) (Homo sapiens, UniProt O00370).
T2 construct: Human L1 ORF2 amino acid 238-1061 was inserted behind MBP gene in frame; made in house; host or cells: E. coli BL21
Briefly: In vitro (cell-free) RT assay and kinetic analysis with recombinant L1 RT. Conditions: for high concentration at which L1 RT was inhibited: inhibited only at this high concentration; for IC50: calculated as IC50 = Ki(1+ S/Km), read-out: IC50 against L1 RT; for Ki: competitive with respect to dTTP (AZTTP, d4TTP) or dCTP (ddCTP, 3TCTP), Lineweaver-Burk, read-out: Ki against L1 RT. Format: biochemical. The procedure: as §2
The kinetic analysis was performed under the same conditions described above but with various concentrations of substrates and inhibitors as indicated in the text. Poly (rA)-oligo (dT)12-18 and [α-^32P] dTTP were used to analyze AZTTP and d4TTP. Poly (rI)-oligo (dC)12-18 and [α-^32P] dCTP were used to assay ddCTP and 3TCTP.

Another data set concerns HeLa cells. Briefly: Cell cytotoxicity of RT inhibitors. Format: cell-based, human. The procedure: Untransfected Hela cells were plated on 10 cm plate (500 cells/plate) with and without RT inhibitors. Ten days later, cells were fixed to the plate and stained with 0.1% crystal violet. The number of colonies was counted to calculate colony formation ability. Colony formation ability of control assay without inhibitors was considered as 1.0 and colony formation ability in the presence of inhibitors was indicated as relative efficiency with respect to the control.

The test system of data set [5] is AMV RT, MLV RT, human DNA polymerases α, β, γ and Klenow fragment. Conditions: cited from earlier work.
In the next data set the test system is HIV-1 RT. Conditions: read-out: IC50 against HIV-1 RT; previously reported; cited from earlier work.
Data set [6] addresses T1, Ty1 RT. Further details: method as in PMID 10816427, PMID 11577982. Conditions: ratio of ddGTP/GTP 0.2; cited from earlier work.

With `O=c1[nH]cnc2c1ncn2[C@H]1CC[C@@H](CO)O1` [ddI, 2'-3'-dideoxyinosine], the Relative retrotransposition efficiency in data set [1] (5 μM) is reported as <0.0025^c; in [1] (50 μM), <0.0025^c; in [2] (50 μM), <0.005^c.
Take `Cc1cn([C@H]2C[C@H](N=[N+]=[N-])[C@@H](CO)O2)c(=O)[nH]c1=O` [AZT, azidothymidine]: the results for the Relative retrotransposition efficiency in data set [1] (5 μM) and in data set [1] (50 μM) were 0.75 ± 0.08 and 0.16 ± 0.02, respectively. In the data set with HIV-1, the “concentration completely inhibiting HIV-1 production” value was 1 to 3 µM. Moreover, in data set [2] (Homo sapiens, HeLa, 5 μM), the activity at 5 µM was determined as 62 ± 6%. Further, in data set [2] (Homo sapiens, HeLa, 50 μM), the activity at 50 µM turned out to be 23 ± 4%.
As usually defined, the inhibition is the drop in the measured response relative to a control, in per cent. Consider `O=C1Nc2ccc(Cl)cc2[C@@](C#CC2CC2)(C(F)(F)F)O1` [EFV, efavirenz], for which, on Ty1 RT [3], the “high concentration at which Ty1 RT was inhibited” value came to 500 µM. Further, the activity at 5 µM in data set [2] (Homo sapiens, HeLa, 5 μM) came out at 28 ± 2%. Moreover, in [2] (Homo sapiens, HeLa, 5 μM, read-out: inhibition of L1 retrotransposition efficiency), the inhibition at 5 µM was around 72%. For the same molecule, the “high concentration at which L1 RT was inhibited” value in data set [4] was 500 µM. For the same molecule, the “concentration causing massive HeLa cell death” value in the data set on HeLa cells stood at 50 µM. Moreover, in [5], the “activity against a variety of polymerases” value is “inactive”.
A word on the Km: it is the concentration of substrate that gives half-maximal velocity. For the molecule `Cc1cn([C@H]2C[C@H](O)[C@@H](COP(=O)(O)OP(=O)(O)OP(=O)(O)O)O2)c(=O)[nH]c1=O` [dTTP], the Km in data set [4] (poly (rA)-oligo (dT)12-18, no inhibitor, read-out: Km value for dTTP) came out at 830 nM.
The IC50 is the concentration at which inhibition is half-maximal. The term Ki denotes the dissociation constant of the complex between target and ligand, obtained from inhibition or displacement. Consider `Cc1cn([C@H]2C[C@H](N=[N+]=[N-])[C@@H](CO[P@](=O)(O)O[P@](=O)(O)OP(=O)(O)O)O2)c(=O)[nH]c1=O` [AZTTP, azidothymidine triphosphate], for which the “increase of Ty1 RT activity” value at Ty1 RT [3] is reported as “up to 40%”. In addition, in data set [4], the IC50 was 19.8 nM and the Ki worked out at 16.4 ± 4.21 nM.
On to `Nc1ccn([C@H]2CC[C@@H](CO)O2)c(=O)n1` [ddC, 2'-3'-dideoxycytidine], for which the Relative retrotransposition efficiency was <0.0025^c in data set [1] (5 μM), <0.0025^c in [1] (50 μM) and <0.005^c in [2] (50 μM).
With `Cc1cn([C@H]2C=C[C@@H](COP(=O)(O)OP(=O)(O)OP(=O)(O)O)O2)c(=O)[nH]c1=O` [d4TTP, 2'-3'-didehydro-2'-3'-dideoxythymidine triphosphate], in [4], the IC50 was 0.88 nM and the Ki was 0.73 ± 0.22 nM.
With `Nc1ccn([C@H]2C[C@H](O)[C@@H](COP(=O)(O)OP(=O)(O)OP(=O)(O)O)O2)c(=O)n1` [dCTP], the Km in data set [4] (poly (rI)-oligo (dC)12-18, no inhibitor, read-out: Km value for dCTP substrate) was found to be 380 nM.
Take `Nc1ccn([C@@H]2CS[C@H](COP(=O)(O)OP(=O)(O)OP(=O)(O)O)O2)c(=O)n1` [3TCTP, 2',3'-dideoxy-3'-thiacytidine triphosphate]: the “increase of Ty1 RT activity” value at Ty1 RT [3] is recorded as “up to 40%”. In data set [4], the IC50 is 18.6 nM and the Ki was determined as 12.9 ± 0.16 nM.
Turning to `CC(C)Nc1cccnc1N1CCN(C(=O)c2cc3cc(NS(C)(=O)=O)ccc3[nH]2)CC1` [DLV, delavirdine], the Relative retrotransposition efficiency in data set [1] (5 μM) worked out at 0.60 ± 0.05; in data set [1] (50 μM), 0.02 ± 0.01. Moreover, on Ty1 RT [3], the “high concentration at which Ty1 RT was inhibited” value came to 50 µM. The activity at 5 µM in data set [2] (Homo sapiens, HeLa, 5 μM) worked out at 63%. In addition, the activity at 50 µM in [2] (Homo sapiens, HeLa, 50 μM) came out at 28 ± 3%. The inhibition at 50 µM in data set [2] (Homo sapiens, HeLa, 50 μM, read-out: inhibition of L1 retrotransposition efficiency) is around 72%. The IC50 in the data set on HIV-1 RT was 260 nM. In data set [4], the “high concentration at which L1 RT was inhibited” value worked out at 50 µM. The “concentration causing massive HeLa cell death” value with HeLa cells is 100 µM.
In the case of `Nc1nc2c(ncn2[C@H]2CC[C@@H](COP(=O)(O)OP(=O)(O)OP(=O)(O)O)O2)c(=O)[nH]1` [ddGTP], the “decrease of Ty1 RT activity” value at Ty1 RT [6] was 90%.
Turning to `Nc1ccn([C@H]2CC[C@@H](COP(=O)(O)OP(=O)(O)OP(=O)(O)O)O2)c(=O)n1` [ddCTP, 2'-3'-dideoxycytidine triphosphate], on Ty1 RT [3], the “increase of Ty1 RT activity” value is “up to 40%”. For the same molecule, in data set [4], the IC50 is 1.04 nM and the Ki amounted to 0.72 ± 0.16 nM.
As to `Nc1ccn([C@H]2CS[C@@H](CO)O2)c(=O)n1` [3TC, 2',3'-dideoxy-3'-thiacytidine], the activity at 5 µM in [2] (Homo sapiens, HeLa, 5 μM) stood at 8 ± 3%. The activity at 50 µM in data set [2] (Homo sapiens, HeLa, 50 μM) turned out to be 3 ± 3%.
As for `Nc1nc(=O)n(C2CSC(CO)O2)cc1F` (stereo not drawn) [FTC, 4-amino-5-fluoro-1-[2-(hydroxymethyl)-1,3-oxathiolan-5-yl]-pyrimidin-2-one], the Relative retrotransposition efficiency in data set [1] (5 μM) was 0.34 ± 0.01; in [1] (50 μM), 0.26 ± 0.04. Moreover, the activity at 5 µM in [2] (Homo sapiens, HeLa, 5 μM) stood at 25 ± 1%. Moreover, in data set [2] (Homo sapiens, HeLa, 50 μM), the activity at 50 µM is 12 ± 4%.
As to `Cc1cn([C@H]2C=C[C@@H](CO)O2)c(=O)[nH]c1=O` [d4T, 2'-3'-didehydro-2'-3'-dideoxythymidine], the Relative retrotransposition efficiency is reported as 0.28 ± 0.05 in data set [1] (5 μM), 0.01 ± 0.02 in data set [1] (50 μM), 0.50 ± 0.05 in data set [2] (5 μM) and 0.05 ± 0.04 in [2] (50 μM).
For the molecule `Nc1nc(NC2CC2)c2ncn(C3C=C[C@H](CO)C3)c2n1` (stereo partly drawn) [ABC, [(1R)-4-[2-amino-6-(cyclopropylamino)purin-9-yl]-1-cyclopent-2-enyl]methanol], the Relative retrotransposition efficiency is listed as 0.80 ± 0.05 in data set [1] (5 μM) and 0.15 ± 0.03 in [1] (50 μM). The activity at 5 µM in data set [2] (Homo sapiens, HeLa, 5 μM) turned out to be 74 ± 6%. For the same molecule, in [2] (Homo sapiens, HeLa, 50 μM), the activity at 50 µM is 20 ± 4%.
